In US20110177161A1, “PHARMACEUTICAL COMPOSITIONS OF [5(S)-(2'-HYDROXYETHOXY)-20(S)-CAMPTOTHECIN” (DR. REDDY'S LABORATORIES LIMITED, priority 2007, published 2011):

Experiments:
[1] = test system: 34 human cancer cell lines; test: In vitro cell growth assay, Sulphorhodamine B (SRB); format: cell-based; conditions: 48 h exposure
Experimental: Cell proliferation was evaluated by Sulphorhodamine B (SRB) assay where the amount of dye bound to the cells after staining gives a measure of cell growth. Refer to: JNCI, vol 83, No. 11, Jun. 5, 1991, which is incorporated herein by reference.
Briefly, cells (34 human cancer cell lines represented by bladder, breast, CNS, colon, epidermoid, lung, ovarian, melanoma, prostate, renal and uterine cancers) were seeded on a 96-well cell culture plates at a concentration of 10,000 cells per well and incubated at 37 degree C. in a CO2 incubator. Twenty-four hours later, cells were treated with different concentrations of […] dissolved in DMSO to a final concentration of 0.05% in the culture medium and exposed for 48 h. Cells were fixed by adding ice-cold 50% trichloroacetic acid (TCA) and incubating for 1 h at 4° C. The plates were washed with distilled water, air dried and stained with SRB solution (0.4% wt/vol in 1% Acetic acid) for 10 min at room temperature. Unbound SRB was removed by washing thoroughly with 1% acetic acid and the plates were air-dried. The bound SRB stain was solubilized with 10 mM Tris buffer, and the optical densities were read on a spectrophotometric plate reader at a single wavelength of 515 nm. […] From the optical densities the percentage growths were calculated using the following formulae: […]

[2] = test system: Human bone marrow mononuclear cells; test: Human bone marrow assay (CFU-GM colonies); format: cell-based; conditions: human
Experimental: Methocult.TM. GF (Cat No: H4534, Poietics, Biowhittakar, USA) medium comprising Methycellulose in iscove's MDM, Fetal bovine serum, Bovine serum albumin, 2-Mercaptoethanol, L-Glutamine, rhStem cell factor, rhGM-CSF and rhIL-3 was used for the assay. Human bone marrow mononuclear cells (Cat No. 2M-125C, Poietics, Biowhittakar, USA) were mixed with Methocult GF and the cell density was adjusted to 3×10^5 cells/ml. From this preparation, 500 μL aliquots were made and […] of 20× drug solution or vehicle was added to each aliquot and mixed thoroughly. 100 μL of clonogenic medium was plated into each well and the plates were allowed to gel at 4° C. for 15 minutes. Plates were incubated at 37 degree C. in a fully humidified atmosphere of 5% CO2 in an incubator for 14 days. CFU-GM colonies were counted under an inverted microscope as aggregates of 50 cells or more. The percentage colony inhibition was calculated using the following formula: 100−[(number of colonies in drug treated wells/Number of colonies in control wells)×100].

[3] = test system: Saos-2 cells over expressing functional BCRP#4; test: cells; format: cell-based, human; conditions: Homo sapiens, SAOS-2, 144 h, read-out: BCRP mut#4 (IC50 (nM))
Experimental: (§1) The anticancer effect of 5(S)-(2′-hydroxyethoxy)-20(S)-camptothecin & 5(R)-(2′-hydroxyethoxy)-20(S)-camptothecin were evaluated versus the racemate 5(RS)-(2′-hydroxyethoxy)-20(S)-camptothecin on Saos-2 cells over expressing functional BCRP#4 and non-functional BCRP mut#10. The human osteosarcoma cell line, Saos-2, was obtained from ATCC (American Type Culture Collection, Cat#HTB-85, Manassas, Va.) and were maintained in DMEM containing 10% fetal bovine serum, 1% penicillin/streptomycin, and 2 mM glutamine. Saos-2 cells were transfected with either BCRP#4 to over express functional BCRP or BCRP#10 to over express non-functional BCRP transporter. The cells were plated in 96-well plates at a density of 1000 cells per each well in a 0.1 ml of medium and allowed to attach overnight. The next morning the medium was gently aspirated and serial dilutions of the compounds to be tested were added. The cells were incubated at 37° C. in a 5% CO2 incubator. After 6 days of exposure to the test drugs, 10µl of Alamar blue was added aseptically to each well and the plates were returned to the incubator for 6 hr. The amount of the fluorescent dye produced was measured on a Cytofluor.RTM. 2300 (Millipore, Bedford, Mass.) using an excitation wavelength of 530 nm and emission wavelength of 590 nm. The relative fluorescence units obtained were used to calculate the percentage growth at each concentration in relation to the untreated control values. From the percentage growth values the IC50 (inhibitory concentration required to inhibit the cell growth by 50% compared to control cells growth) values were derived.

[4] = test system: Saos-2 cells over expressing non-functional BCRP mut#10; test: cells; format: cell-based, human; conditions: Homo sapiens, SAOS-2, 144 h, read-out: BCRP mut#10 (IC50 (nM))
Experimental: as §1

CC[C@@]1(O)C(=O)OCc2c1cc1n(c2=O)[C@H](OCCO)c2cc3ccccc3nc2-1 [5(R)-(2′-hydroxyethoxy)-20(S)-camptothecin, reference compound]
GI50 [1]: 14600 nM
Safety Margin GI90/GI50 [2]: 0.06
IC50 [3]: > 2000 nM
IC50 [4]: 1300 nM
